Here are results for 40 compounds from ChEMBL document CHEMBL3507680, “University of Dundee, Gates Library screen for HepG2 cell viability”.

SMILES strings stand for the structures.

The nature of the data set: Human HepG2 cell viability assay in 384 well format. Format: toxicity, cell-based. Further details: dose 125 nL, time 70.5 hour; cytotoxicity at 70.5 h: concentration not given beside the values. The conditions noted are these: HepG2 cells, read-out: Inhibition.
For the compound `O=C(C1CCOCC1)N1CCN2C(=O)N(Cc3ccc(F)cc3)C[C@H]2C1`, the cytotoxicity at 70.5 h is -3.96%. For `c1cc(CNCC2CNc3ccnn3C2)cc(N2CCOCC2)n1` (stereo not given), the cytotoxicity at 70.5 h was -5.11%. With `CNC(=O)C1(CCCc2ccncc2)CCCCN1` (stereo not given), the cytotoxicity at 70.5 h is 15.5%. Turning to `Cc1nccn1CCCC(=O)N1CCC(Nc2cccnn2)CC1`, the cytotoxicity at 70.5 h was determined as 5.36%. As to `CCS(=O)(=O)c1ccc2oc([C@H]3CCN(Cc4cccnc4)C3)nc2c1`, the cytotoxicity at 70.5 h stood at 9.25%. On to `COc1ccc(-c2ccnc3c2C(=O)CCC3)cc1`, for which the cytotoxicity at 70.5 h came to 25.7%. `O=C(COc1ccccc1)N1CCC[C@]2(C[C@H](OCC3CC3)CO2)C1`: the cytotoxicity at 70.5 h is -7.58%. Take `Cc1nccn1CCC1CCCCN1Cc1cnc(N(C)C)nc1` (stereo not given): the cytotoxicity at 70.5 h is -3.91%. For the compound `c1ccc2c(N3CCCCC3Cn3cncn3)ncnc2c1` (stereo not given), the cytotoxicity at 70.5 h was -9.62%. As for `CCc1nnc2n1CCN(C(=O)c1ccccc1OCC1CC1)C2`, the cytotoxicity at 70.5 h was 0.159%. For `CCOc1ccc(Cl)c(C(=O)NCCS(N)(=O)=O)n1`, the cytotoxicity at 70.5 h worked out at 22%. In the case of `COC(=O)N1CCC(Nc2cccc(F)c2C#N)CC1`, the cytotoxicity at 70.5 h is -3.28%. Consider `Cc1ccc(OC2CCN(C(=O)Cc3c(C)[nH]c(=O)[nH]c3=O)CC2)cc1`, for which the cytotoxicity at 70.5 h was -10.2%. Regarding `Cc1cn2c(n1)CCC(NC(=O)CCCn1cncn1)C2` (stereo not given), the cytotoxicity at 70.5 h amounted to 15.9%. Under `CC[C@@H](Cn1ncc2ccccc2c1=O)NC(=O)c1ccco1` stands -8.28%; under `O=C(NCc1cc[nH]n1)N1CCCCC(N2CCCC2)C1` (stereo not given), -0.0102%; under `CC(C(=O)N1CCCC1)N1CCC(c2nccn2CC2CCC2)CC1` (stereo not given), -4.27%. With `COc1cccc(-c2cc(C(=O)NCCn3nc(C)nc3C)[nH]n2)c1`, the cytotoxicity at 70.5 h was -7.22%. For the compound `COc1ccc(Br)cc1CC(=O)N1CCCC1`, the cytotoxicity at 70.5 h was -5.85%. For the compound `N#Cc1ccc(CN2CCC(CN3CCOCC3)C2)cc1` (stereo not given), the cytotoxicity at 70.5 h is -5.35%. For `Cc1n[nH]c(C)c1CCC(=O)N1CCc2c(nc[nH]c2=O)C1`, the cytotoxicity at 70.5 h was -22.4%. Turning to `Cc1ccc(CN2CCn3cc(CN4CCN(C)CC4)nc3C2)cc1`, the cytotoxicity at 70.5 h was -13.5%. As for `CS(=O)(=O)NCc1n[nH]c2c1CCN(C(=O)c1ccsc1)C2`, the cytotoxicity at 70.5 h was determined as 30.1%. As to `Cc1ncc2c(n1)CN(CC(=O)Nc1cccnc1)CC2`, the cytotoxicity at 70.5 h was 17.5%. `c1ccc2nc(N3CCCC(Cn4cncn4)C3)cnc2c1` (stereo not given): the cytotoxicity at 70.5 h is -1.5%. As for `COCC1CN(C(=O)Nc2ccc(Cl)cc2Cl)CCO1` (stereo not given), the cytotoxicity at 70.5 h is -8.42%. For the compound `O=C(c1cccnc1Oc1ccc(Cl)cc1)N1CC[C@@H](O)C1`, the cytotoxicity at 70.5 h turned out to be 24.9%.

Regarding `CC(C)N(CC(C)(C)O)C(=O)NC1CC1`, the cytotoxicity at 70.5 h is 20.8%. Consider `CN(C)c1cc2c(nn1)CCN(C(=O)C1Cc3ccccc3O1)C2` (stereo not given), for which the cytotoxicity at 70.5 h turned out to be 8.33%.

In the case of `CC(=O)N(c1ccc(C)cc1)c1nc(CN2CCCC(C)C2)cs1` (stereo not given), the cytotoxicity at 70.5 h amounted to 12.3%. Under `Cn1ncc2c(=O)[nH]c(CN(Cc3ccco3)C3CC3)nc21` stands -16.2%. For `CSCC(=O)N1CCOC(c2nc(C(C)(C)C)n[nH]2)C1` (stereo not given), the cytotoxicity at 70.5 h was -0.6%. On to `O=C([C@@H]1CCO[C@@H]2CCN(Cc3cccnc3)C[C@H]21)N1CCCCO1`, for which the cytotoxicity at 70.5 h is -13.8%.

As to `NC(=O)CCC(=O)N1CCc2[nH]nc(-c3ccc4c(c3)OCO4)c2C1`, the cytotoxicity at 70.5 h is -5.52%. In the case of `c1ccc(CN2CCc3nnc(COc4ccccn4)n3CC2)nc1`, the cytotoxicity at 70.5 h was found to be 13.9%.

For the compound `CC(C)Cn1c2c(ccc1=O)CC(N)CC2` (stereo not given), the cytotoxicity at 70.5 h was -3.16%. For `CS(=O)(=O)N1CCC(Oc2cnccn2)CC1`, the cytotoxicity at 70.5 h is -5.72%. On to `COc1ncc(C2(O)CCN(Cc3ccc(F)c(F)c3)CC2)c(OC)n1`, for which the cytotoxicity at 70.5 h is -3.5%. In the case of `OCC(CO)N1CCC(c2nccnc2Nc2cnccn2)CC1`, the cytotoxicity at 70.5 h is -2.76%.

With `CO[C@@H]1CCN(Cc2ccccn2)[C@@H]2CN(Cc3ccco3)C[C@@H]21`, the cytotoxicity at 70.5 h came to 32.3%.
